Source: patent publication US12421222B2 (AUGUSTINE THERAPEUTICS, priority 2021, dated 2025)

Tested on: acetylated tubulin (Lys40) in HeLa cells
Test: Acetylated α-tubulin measurement in vitro (immunocytochemistry)
Assay type: cell-based
Conditions: Homo sapiens, 6 hours incubation, acetylated tubulin (Lys40) by immunocytochemistry, read-out: IC50 (Tubulin deacetylation)
How it was run: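 HeLa cells in serum-free medium treated 6 h at 37 °C (final DMSO 0.1–0.4%), then PFA-fixed and immunostained for acetyl-Lys40 and total α-tubulin; high-content imaging.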

Row | Structure (SMILES) | IC50 [µM]
1 | COc1ccc2nc(C)nc(SCC(=O)c3ccc(CNC(=O)C4(O)CC4)s3)c2c1 [Example 50, 1-hydroxy-N-((5-(2-((6-methoxy-2-methylquinazolin-4-yl)thio)acetyl)thiophen-2-yl)methyl)cyclopropane-1-carboxamide] | 0.1 to 0.5
2 | COc1ccc2nc(C)nc(SCC(=O)c3ccc(CNC(=O)C(F)(F)C(F)(F)F)s3)c2c1 [Example 40, 2,2,3,3,3-pentafluoro-N-((5-(2-((6-methoxy-2-methylquinazolin-4-yl)thio)acetyl)thiophen-2-yl)methyl)propanamide] | 0.5 to 1
3 | O=C(CSc1nc(C(F)(F)F)nc2nn(C3CC3)cc12)c1ccc(CNC(=O)C2CC2(F)F)s1 (centres unmarked) [Example 43, N-((5-(2-((2-cyclopropyl-6-(trifluoromethyl)-2H-pyrazolo[3,4-d]pyrimidin-4-yl)thio)acetyl)thiophen-2-yl)methyl)-2,2-difluorocyclopropane-1-carboxamide] | 0.1 to 0.5
4 | Cc1nc(SCC(=O)c2ccc(CNC(=O)CO)s2)c2ccccc2n1 [Example 66, 2-hydroxy-N-((5-(2-((2-methylquinazolin-4-yl)thio)acetyl)thiophen-2-yl)methyl)acetamide] | 0.1 to 0.5
5 | COc1cc(F)c2nc(C)nc(SCC(=O)c3ccc(CNC(=O)CO)s3)c2c1 [Example 108, N-((5-(2-((8-fluoro-6-methoxy-2-methylquinazolin-4-yl)thio)acetyl)thiophen-2-yl)methyl)-2-hydroxyacetamide] | 0.1 to 0.5
6 | COc1ccc2nc(C)nc(SCC(=O)c3ccc(CNC(=O)C4CC4)s3)c2c1 [Example 51, N-((5-(2-((6-methoxy-2-methylquinazolin-4-yl)thio)acetyl)thiophen-2-yl)methyl)cyclopropanecarboxamide] | 1 to 3.33
7 | Cc1nc(SCC(=O)c2ccc(CNC(=O)C(C)(C)C)s2)c2ncccc2n1 [Example 18, N-((5-(2-((2-methylpyrido[3,2-d]pyrimidin-4-yl)thio)acetyl)thiophen-2-yl)methyl)pivalamide] | 1 to 3.33
8 | Cn1ncc2c(SCC(=O)c3ccc(CNC(=O)CO)s3)nc(C(F)(F)F)nc21 [Example 74, 2-hydroxy-N-((5-(2-((1-methyl-6-(trifluoromethyl)-1H-pyrazolo[3,4-d]pyrimidin-4-yl)thio)acetyl)thiophen-2-yl)methyl)acetamide] | 0.1 to 0.5
9 | Cn1ncc2c(SCC(=O)c3ccc(CNC(=O)C(C)(C)C)s3)nc(C(F)(F)F)nc21 [Example 20, N-((5-(2-((1-methyl-6-(trifluoromethyl)-1H-pyrazolo[3,4-d]pyrimidin-4-yl)thio)acetyl)thiophen-2-yl)methyl)pivalamide] | 0.1 to 0.5
10 | O=C(CO)NCc1ccc(C(=O)CSc2nc(C(F)(F)F)nc3cc(C4CC4)nn23)s1 [Example 112, N-((5-(2-((7-cyclopropyl-2-(trifluoromethyl)pyrazolo[1,5-a][1,3,5]triazin-4-yl)thio)acetyl)thiophen-2-yl)methyl)-2-hydroxyacetamide] | 0.1 to 0.5
11 | O=C(CO)NCc1ccc(C(=O)CSc2nc(C(F)(F)F)nc3ccc(N4CCOCC4)cc23)s1 [Example 63] | 0.1 to 0.5
12 | Cc1nc(SCC(=O)c2ccc(CNC(=O)C(C)(C)C)s2)c2ccc(Cl)cc2n1 [Example 8, N-((5-(2-((7-chloro-2-methylquinazolin-4-yl)thio)acetyl)thiophen-2-yl)methyl)pivalamide] | > 3.33
13 | Cc1nc(SCC(=O)c2ccc(CNC(=O)C3CC3(F)F)s2)c2cccnc2n1 (centres unmarked) [Example 110, 2,2-difluoro-N-((5-(2-((2-methylpyrido[2,3-d]pyrimidin-4-yl)thio)acetyl)thiophen-2-yl)methyl)cyclopropane-1-carboxamide] | ≤ 0.1
14 | Cc1nc(SCC(=O)c2ccc(CNC(=O)CO)s2)c2cc(OC3CC3)ccc2n1 [Example 77, N-((5-(2-((6-cyclopropoxy-2-methylquinazolin-4-yl)thio)acetyl)thiophen-2-yl)methyl)-2-hydroxyacetamide] | 0.1 to 0.5
15 | Cn1cc2c(SCC(=O)c3ccc(CNC(=O)C4CC4(F)F)s3)nc(C(F)(F)F)nc2n1 (centres unmarked) [Example 111, 2,2-difluoro-N-((5-(2-((2-methyl-6-(trifluoromethyl)-2H-pyrazolo[3,4-d]pyrimidin-4-yl)thio)acetyl)thiophen-2-yl)methyl)cyclopropane-1-carboxamide] | 0.1 to 0.5
16 | O=C(CSc1nc(C(F)(F)F)nc2ccccc12)c1ccc(CCNC(=O)C2CC2)s1 [Example 36, N-(2-(5-(2-((2-(trifluoromethyl)quinazolin-4-yl)thio)acetyl)thiophen-2-yl)ethyl)cyclopropanecarboxamide] | > 3.33
17 | O=C(CSc1nc2nc(C(F)(F)F)ccc2o1)c1ccc(CNC(=O)C2(O)CC2)s1 [Example 45, 1-hydroxy-N-((5-(2-((5-(trifluoromethyl)oxazolo[4,5-b]157yrrolid-2-yl)thio)acetyl)thiophen-2-yl)methyl)cyclopropane-1-carboxamide] | ≤ 0.1
18 | Cn1ncc2c(SCC(=O)c3ccc(CN4CCCC4=O)s3)ncnc21 [Example 25, 1-((5-(2-((1-methyl-1H-pyrazolo[3,4-d]pyrimidin-4-yl)thio)acetyl)thiophen-2-yl)methyl)pyrrolidin-2-one] | > 3.33
19 | Cc1nc(SCC(=O)c2ccc(CNC(=O)CO)s2)c2cc(N3CCCOCC3)ccc2n1 [Example 83, 2-hydroxy-N-((5-(2-((2-methyl-6-(1,4-oxazepan-4-yl)quinazolin-4-yl)thio)acetyl)thiophen-2-yl)methyl)acetamide] | ≤ 0.1
20 | Cc1nc(SCC(=O)c2ccc(CNC(=O)CO)s2)c2cc(C3CC3)ccc2n1 [Example 106, N-((5-(2-((6-cyclopropyl-2-methylquinazolin-4-yl)thio)acetyl)thiophen-2-yl)methyl)-2-hydroxyacetamide] | 0.1 to 0.5

Next, values leading:

Row | IC50 [µM] | Structure (SMILES)
21 | ≤ 0.1 | CCOc1cc2c(SCC(=O)c3ccc(CNC(=O)CO)s3)nc(C)nc2cn1 [Example 145, N-((5-(2-((6-ethoxy-2-methylpyrido[3,4-d]pyrimidin-4-yl)thio)acetyl)thiophen-2-yl)methyl)-2-hydroxyacetamide]
22 | 0.1 to 0.5 | CN(Cc1ccc(C(=O)CSc2nc(C(F)(F)F)nc3nn(C)cc23)s1)C(=O)CO [Example 116, 2-hydroxy-N-methyl-N-((5-(2-((2-methyl-6-(trifluoromethyl)-2H-pyrazolo[3,4-d]pyrimidin-4-yl)thio)acetyl)thiophen-2-yl)methyl)acetamide]
23 | 0.1 to 0.5 | COc1cnc2nc(C)nc(SCC(=O)c3ccc(CN(C)C(=O)CO)s3)c2c1 [Example 162, 2-hydroxy-N-((5-(2-((6-methoxy-2-methylpyrido[2,3-d]pyrimidin-4-yl)thio)acetyl)thiophen-2-yl)methyl)-N-methylacetamide]
24 | ≤ 0.1 | O=C(CSc1nc(C(F)(F)F)nc2ncccc12)c1ccc(CN2CCC(O)C2=O)s1 (stereo in doubt) [Example 155, (S)-3-hydroxy-1-((5-(2-((2-(trifluoromethyl)pyrido[2,3-d]pyrimidin-4-yl)thio)acetyl)thiophen-2-yl)methyl)pyrrolidin-2-one]
25 | 0.5 to 1 | O=C(CO)NCc1ccc(C(=O)CSc2nccn3nccc23)s1 [Example 182, 2-hydroxy-N-((5-(2-(pyrazolo[1,5-a]pyrazin-4-ylthio)acetyl)thiophen-2-yl)methyl)acetamide]
26 | 0.1 to 0.5 | O=C(CSc1nc(C(F)(F)F)nc2ncccc12)c1ccc(CN2CCOCC2=O)s1 [Example 138, 4-((5-(2-((2-(trifluoromethyl)pyrido[2,3-d]pyrimidin-4-yl)thio)acetyl)thiophen-2-yl)methyl)morpholin-3-one]
27 | 0.1 to 0.5 | Cc1nc(SCC(=O)c2ccc(CNC(=O)C3CC3(F)F)s2)c2cc(OC(F)(F)F)ccc2n1 (centres unmarked) [Example 120, 2,2-difluoro-N-((5-(2-((2-methyl-6-(trifluoromethoxy)quinazolin-4-yl)thio)acetyl)thiophen-2-yl)methyl)cyclopropane-1-carboxamide]
28 | 0.1 to 0.5 | O=C(CO)NCc1ccc(C(=O)CSc2nc3ncc(C(F)(F)F)cc3o2)s1 [Example 118, 2-hydroxy-N-((5-(2-((6-(trifluoromethyl)oxazolo[4,5-b]157yrrolid-2-yl)thio)acetyl)thiophen-2-yl)methyl)acetamide]
29 | 0.1 to 0.5 | COc1ccc2nc(C(F)F)nc(SCC(=O)c3ccc(CNC(=O)CO)s3)c2c1 [Example 139, N-((5-(2-((2-(difluoromethyl)-6-methoxyquinazolin-4-yl)thio)acetyl)thiophen-2-yl)methyl)-2-hydroxyacetamide]
30 | 0.1 to 0.5 | CNCC(=O)NCc1ccc(C(=O)CSc2nc(C)nc3ccc(OC)cc23)s1 [Example 183, N-((5-(2-((6-methoxy-2-methylquinazolin-4-yl)thio)acetyl)thiophen-2-yl)methyl)-2-(methylamino)acetamide]
31 | ≤ 0.1 | COc1ccc2nc(C)nc(SCC(=O)c3ccc(CNC(=O)CN)s3)c2c1 [Example 177, 2-amino-N-((5-(2-((6-methoxy-2-methylquinazolin-4-yl)thio)acetyl)thiophen-2-yl)methyl)acetamide]
32 | ≤ 0.1 | O=C(CO)NCc1ccc(C(=O)CSc2nc(C(F)(F)F)nc3cccnc23)s1 [Example 152, 2-hydroxy-N-((5-(2-((2-(trifluoromethyl)pyrido[3,2-d]pyrimidin-4-yl)thio)acetyl)thiophen-2-yl)methyl)acetamide]
33 | 0.1 to 0.5 | COc1ccc2nc(C)nc(SCC(=O)c3ccc(CNC(=O)C4CCCO4)s3)c2c1 (centres unmarked) [Example 171, N-((5-(2-((6-methoxy-2-methylquinazolin-4-yl)thio)acetyl)thiophen-2-yl)methyl)tetrahydrofuran-2-carboxamide]
34 | ≤ 0.1 | Cc1nc(SCC(=O)c2ccc(CNC(=O)CO)s2)c2cc(C(F)(F)F)cnc2n1 [Example 119, 2-hydroxy-N-((5-(2-((2-methyl-6-(trifluoromethyl)pyrido[2,3-d]pyrimidin-4-yl)thio)acetyl)thiophen-2-yl)methyl)acetamide]
35 | ≤ 0.1 | O=C(CO)NCc1ccc(C(=O)CSc2nccc3ncccc23)s1 [Example 179, N-((5-(2-((1,6-naphthyridin-5-yl)thio)acetyl)thiophen-2-yl)methyl)-2-hydroxyacetamide]
